US6365572B1, “Low molecular weight peptide derivatives as inhibitors of the laminin/nidogen interaction” (Aventis Pharma Deutschland GmbH, priority 1999, dated 2002)
Where two headings read alike, the source gives them in different places. Non-standard residues stand in square brackets, D forms with d. Residues, ends and D or L forms follow the SMILES beside them. *: point of attachment. Bip = N[C@@H](Cc1ccc(-c2ccccc2)cc1)C(=O)O; 1Nal = N[C@@H](Cc1cccc2ccccc12)C(=O)O; 2Nal = N[C@@H](Cc1ccc2ccccc2c1)C(=O)O; Bta = N[C@@H](Cc1csc2ccccc12)C(=O)O; NH(3-hydroxypropyl) = OCCCN*

Biological target: T1, laminin/nidogen interaction (laminin P1, recombinantly produced human nidogen) (Homo sapiens, UniProt P14543)
T1 construct: made in house; host or cells: HEK-293
T1 sequence (P14543 29-1247): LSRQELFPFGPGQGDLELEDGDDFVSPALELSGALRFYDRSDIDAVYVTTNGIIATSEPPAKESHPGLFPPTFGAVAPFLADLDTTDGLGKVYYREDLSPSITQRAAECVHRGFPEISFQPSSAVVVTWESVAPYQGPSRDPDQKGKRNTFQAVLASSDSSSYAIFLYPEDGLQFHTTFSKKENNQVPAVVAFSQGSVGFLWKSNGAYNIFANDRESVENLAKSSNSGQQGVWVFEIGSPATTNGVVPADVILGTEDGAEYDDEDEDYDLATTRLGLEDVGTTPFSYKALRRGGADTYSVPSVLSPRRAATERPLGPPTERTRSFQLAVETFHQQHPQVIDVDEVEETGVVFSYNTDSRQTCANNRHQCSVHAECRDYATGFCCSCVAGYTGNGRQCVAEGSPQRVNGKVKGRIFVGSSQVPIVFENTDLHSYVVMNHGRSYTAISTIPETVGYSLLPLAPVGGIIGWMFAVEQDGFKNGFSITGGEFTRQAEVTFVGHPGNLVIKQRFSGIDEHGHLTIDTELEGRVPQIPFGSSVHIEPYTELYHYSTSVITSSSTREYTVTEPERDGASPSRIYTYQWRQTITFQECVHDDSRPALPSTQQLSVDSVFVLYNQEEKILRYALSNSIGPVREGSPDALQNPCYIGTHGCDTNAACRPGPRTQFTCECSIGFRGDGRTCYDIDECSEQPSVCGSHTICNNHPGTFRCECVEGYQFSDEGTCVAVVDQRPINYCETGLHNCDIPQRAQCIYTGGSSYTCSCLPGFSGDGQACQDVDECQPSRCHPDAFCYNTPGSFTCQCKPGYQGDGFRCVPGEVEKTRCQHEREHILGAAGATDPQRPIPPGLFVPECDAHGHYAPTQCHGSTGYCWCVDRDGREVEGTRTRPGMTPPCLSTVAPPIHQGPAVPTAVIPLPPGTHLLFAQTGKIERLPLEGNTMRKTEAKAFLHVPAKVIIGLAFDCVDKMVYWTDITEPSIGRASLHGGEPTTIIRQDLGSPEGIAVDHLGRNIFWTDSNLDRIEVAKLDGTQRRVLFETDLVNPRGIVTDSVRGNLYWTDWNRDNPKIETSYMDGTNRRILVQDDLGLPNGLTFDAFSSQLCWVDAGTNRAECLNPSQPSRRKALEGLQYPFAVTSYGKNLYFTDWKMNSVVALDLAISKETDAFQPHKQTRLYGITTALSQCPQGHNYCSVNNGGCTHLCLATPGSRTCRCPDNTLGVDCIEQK
Assay: HTS screening assay (time-resolved fluorescence), inhibition of laminin/nidogen binding
Settings: read-out: IC50
Experimental: 5) The compound stocks were preincubated with nidogen (10 μl compound stock to 90 μl nidogen solution) and the assay was performed as described in the attached protocol, yielding a final screening concentration of 2.7 μM per compound. The isolation of laminin P1 from human placenta, human nidogen from transfected HEK-293 cells and mouse laminin γ1III 3-5 from HEK-293 cells is described in WO 98/31709. 3.1.1. HTS screening assay (highly sensitive assay variant): Time-Resolved Fluorescence Assay Coating of test tubes Microtiter plates (for example FluoroNunc®) were coated with 75 μl of a 0.1 μg/ml solution of laminin P1 (in 0.159 g of Na2CO3, 0.293 g of NaHCO3, 0.02 g of NaN3/liter, pH 9.2) at room temperature for 1 hour. The solution was then tipped off, and free binding sites were blocked by incubation with 0.5% BSA (in 7.9 g of NaCl, 1.2 g of Na2HPO4, 0.31 g of KCl, 0.23 g of NaH2PO4, 0.04% Tween 20/liter, pH 7.2) at room temperature for 0.5 hour. Completion of the blocking reaction was followed by decantation of the solution and washing once with 250 μl of washing buffer (PBS/0.04% Tween). Sequential inhibition In parallel with the coating, a preincubation of 85-100 μl of a 0.25 nM nidogen solution (recombinantly produced human nidogen) with inhibitor or standard was carried out in a separate reaction vessel (1 hour at room temperature in 7.9 g of NaCl, 1.2 g of Na2HPO4, 0.31 g of KCl, 0.23 g of NaH2PO4, 0.04% Tween 20/liter, 0.5% BSA, pH 7.2). 75 μl of the preincubation (nidogen+inhibitor or standard) were transferred into the coated wells of the microtiter plate and incubated at room temperature for 1 hour. This was followed by washing twice with PBS/0.04% Tween. Detection of the bound nidogen took place by incubation (at room temperature) for 1 hour with 75 μl of a specific antibody preparation obtained from yolks of eggs from a chicken immunized with human nidogen. The IgY fraction was used in a dilution of 1:500 in PBS/0.04% Tween. The complex of nidogen and specifically bound antibodies was, after washing twice with PBS/0.04% Tween, detected by adding anti-chicken IgY-biotin (75 μl of a 1:2500 dilution; Promega, Madison, Wis. 53711, 608-274-4330). An incubation time of 1 hour and washing twice with PBS/0.04% Tween were followed for this purpose by incubation with streptavidin-europium (Wallac; 1 hour at room temperature) and washing twice with PBS/0.04% Tween. It was finally possible, after adding 100 μl of enhancement solution (Wallac) and shaking for 5 minutes, to measure a fluorescence signal in a Victor multilabel counter using the europium protocol. The relation between the amount, of bound nidogen in the solutions with inhibitor and that of nidogen without added inhibitor was found.

[1] = results table 1.3, synthesized compounds 1 to 43
[2] = hit structures recovered from the pentamer library screening

IC50 [1] [nM] | IC50 [2] [nM] | Compound
27 | – | CC(C)[C@H](NC(=O)[C@H](C)NC(=O)[C@H](CC(N)=O)NC(=O)C1[C@@H](c2ccc3ccccc3c2)CCN1C(=O)CCC(=O)O)C(N)=O (stereo in doubt) [Compound 34, Succinyl-L-(3R)-(2-naphthyl)prolyl-L-asparaginyl-L-alanyl-L-valine-amide]
3900 | – | CC[C@H](C)[C@H](NC(=O)[C@@H](N)CC(N)=O)C(=O)N[C@@H](CC(=O)O)C(=O)N1CCC[C@H]1C(=O)N[C@@H](CC(N)=O)C(=O)N[C@@H](C)C(=O)N[C@H](C(=O)NCC(=O)NCCCO)C(C)C [Compound 1, L-Asparaginyl-L-isoleucyl-L-aspartyl-L-prolyl-L-asparaginyl-L-alanyl-L-valyl-glycine-3-hydroxypropylamide, reference compound] (H-NIDPNAVG-{NH(3-hydroxypropyl)})
7700 | – | CC(C)[C@H](NC(=O)[C@H](C)NC(=O)[C@H](CC(N)=O)NC(=O)[C@@H]1CCCN1C(=O)[C@@H](N)CC(=O)O)C(=O)NCC(=O)NCCCO [Compound 2, L-Aspartyl-L-prolyl-L-asparaginyl-L-alanyl-L-valyl-glycine-3-hydroxypropylamide, reference compound] (H-DPNAVG-{NH(3-hydroxypropyl)})
510 | 430 | CC(C)[C@H](NC(=O)[C@H](CC(=O)O)NC(=O)[C@H](CC(N)=O)NC(=O)[C@H](Cc1ccc2ccccc2c1)NC(=O)[C@@H](N)CC(=O)O)C(=O)NCC(=O)NCCCO [Compound 3, L-Aspartyl-L-3-(2-naphthyl)alanyl-L-asparaginyl-L-aspartyl-L-valyl-glycine-3-hydroxypropylamide] (H-D[2Nal]NDVG-{NH(3-hydroxypropyl)})
380 | 490 | CC(C)[C@H](NC(=O)[C@H](CO)NC(=O)[C@H](CC(N)=O)NC(=O)[C@H](Cc1ccc2ccccc2c1)NC(=O)[C@@H](N)CC(=O)O)C(=O)NCC(=O)NCCCO [Compound 4, L-Aspartyl-L-3-(2-naphthyl)alanyl-L-asparaginyl-L-seryl-L-valyl-glycine-3-hydroxypropylamide] (H-D[2Nal]NSVG-{NH(3-hydroxypropyl)})
750 | 370 | CC(C)[C@H](NC(=O)[C@H](C)NC(=O)[C@H](CC(N)=O)NC(=O)[C@H](Cc1ccc2ccccc2c1)NC(=O)[C@@H](N)CC(=O)O)C(=O)NCC(=O)NCCCO [Compound 5, L-Aspartyl-L-3-(2-naphthyl)alanyl-L-asparaginyl-L-alanyl-L-valyl-glycine-3-hydroxypropylamide] (H-D[2Nal]NAVG-{NH(3-hydroxypropyl)})
1380 | 640 | CC[C@H](C)[C@H](NC(=O)[C@H](CC(=O)O)NC(=O)[C@H](CC(N)=O)NC(=O)[C@H](Cc1ccc2ccccc2c1)NC(=O)[C@@H](N)CC(=O)O)C(=O)NCC(=O)NCCCO [Compound 6] (H-D[2Nal]NDIG-{NH(3-hydroxypropyl)})
600 | 810 | CC[C@H](C)[C@H](NC(=O)[C@H](CO)NC(=O)[C@H](CC(N)=O)NC(=O)[C@H](Cc1ccc2ccccc2c1)NC(=O)[C@@H](N)CC(=O)O)C(=O)NCC(=O)NCCCO [Compound 7, L-Aspartyl-L-3-(2-naphthyl)alanyl-L-asparaginyl-L-seryl-L-isoleucyl-glycine-3-hydroxypropylamide] (H-D[2Nal]NSIG-{NH(3-hydroxypropyl)})
700 | 470 | CC[C@H](C)[C@H](NC(=O)[C@H](C)NC(=O)[C@H](CC(N)=O)NC(=O)[C@H](Cc1ccc2ccccc2c1)NC(=O)[C@@H](N)CC(=O)O)C(=O)NCC(=O)NCCCO [Compound 8, L-Aspartyl-L-3-(2-naphthyl)alanyl-L-asparaginyl-L-alanyl-L-isoleucyl-glycine-3-hydroxypropylamide] (H-D[2Nal]NAIG-{NH(3-hydroxypropyl)})
8250 | – | CC(C)[C@H](NC(=O)[C@H](C)NC(=O)[C@H](CC(N)=O)NC(=O)[C@H](Cc1cccc2ccccc12)NC(=O)[C@@H](N)CC(=O)O)C(=O)NCC(=O)NCCCO [Compound 9, L-Aspartyl-L-3-(1-naphthyl)alanyl-L-asparaginyl-L-alanyl-L-valyl-glycine-3-hydroxypropylamide] (H-D[1Nal]NAVG-{NH(3-hydroxypropyl)})
8570 | – | CC(C)[C@H](NC(=O)[C@H](C)NC(=O)[C@H](CC(N)=O)NC(=O)[C@H](Cc1c[nH]c2ccccc12)NC(=O)[C@@H](N)CC(=O)O)C(=O)NCC(=O)NCCCO [Compound 10, L-Aspartyl-L-tryptophanyl-L-asparaginyl-L-alanyl-L-valyl-glycine-3-hydroxypropylamide] (H-DWNAVG-{NH(3-hydroxypropyl)})
3380 | – | CC(C)[C@H](NC(=O)[C@H](C)NC(=O)[C@H](CC(N)=O)NC(=O)[C@H](Cc1ccccc1)NC(=O)[C@@H](N)CC(=O)O)C(=O)NCC(=O)NCCCO [Compound 11, L-Aspartyl-L-phenylalanyl-L-asparaginyl-L-alanyl-L-valyl-glycine-3-hydroxypropylamide] (H-DFNAVG-{NH(3-hydroxypropyl)})
3790 | – | CC(C)[C@H](NC(=O)[C@H](C)NC(=O)[C@H](CC(N)=O)NC(=O)[C@H](Cc1ccc(O)cc1)NC(=O)[C@@H](N)CC(=O)O)C(=O)NCC(=O)NCCCO [Compound 12, L-Aspartyl-L-tyrosyl-L-asparaginyl-L-alanyl-L-valyl-glycine-3-hydroxypropylamide] (H-DYNAVG-{NH(3-hydroxypropyl)})
7030 | – | CC(C)[C@H](NC(=O)[C@H](C)NC(=O)[C@H](CC(N)=O)NC(=O)[C@H](Cc1csc2ccccc12)NC(=O)[C@@H](N)CC(=O)O)C(=O)NCC(=O)NCCCO [Compound 13, L-Aspartyl-L-3-(3-benzothienyl)alanyl-L-asparaginyl-L-alanyl-L-valyl-glycine-3-hydroxypropylamide] (H-D[Bta]NAVG-{NH(3-hydroxypropyl)})
940 | – | CC(C)[C@H](NC(=O)[C@H](C)NC(=O)[C@H](CC(N)=O)NC(=O)[C@H](Cc1ccc(-c2ccccc2)cc1)NC(=O)[C@@H](N)CC(=O)O)C(=O)NCC(=O)NCCCO [Compound 14, L-Aspartyl-L-3-(4-biphenyl)alanyl-L-asparaginyl-L-alanyl-L-valyl-glycine-3-hydroxypropylamide] (H-D[Bip]NAVG-{NH(3-hydroxypropyl)})
